One data set has as its system estrogenicity. As to conditions: cited from earlier work.
The target in a further data set is T1, CYP2B6 (Homo sapiens, UniProt P20813).
T1 construct: Using HLM as the enzyme source; from tissue; host or cells: human liver microsomes
T1 sequence (P20813 1-491): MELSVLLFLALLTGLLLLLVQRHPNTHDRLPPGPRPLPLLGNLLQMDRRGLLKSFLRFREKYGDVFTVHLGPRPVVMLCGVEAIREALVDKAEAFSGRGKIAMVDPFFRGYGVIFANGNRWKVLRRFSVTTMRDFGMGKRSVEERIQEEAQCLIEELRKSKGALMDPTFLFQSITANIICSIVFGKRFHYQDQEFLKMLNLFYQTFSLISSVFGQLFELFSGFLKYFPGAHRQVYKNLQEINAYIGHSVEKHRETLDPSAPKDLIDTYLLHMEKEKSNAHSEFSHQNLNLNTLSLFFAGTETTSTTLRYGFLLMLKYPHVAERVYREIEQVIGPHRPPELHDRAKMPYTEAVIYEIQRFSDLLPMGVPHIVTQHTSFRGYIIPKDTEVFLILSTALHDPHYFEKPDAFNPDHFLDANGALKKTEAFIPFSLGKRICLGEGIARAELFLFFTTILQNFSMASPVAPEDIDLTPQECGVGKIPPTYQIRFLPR
Nature of the data set: CYP inhibition assay in HLM, single concentration. It is filed as biochemical. As to conditions: human liver microsomes, probe Bupropion, n = 3, read-out: % Inhibition (CYP 2B6). As for the experimental part:
(§1) The regulatory bodies and pharmaceutical firms are quite concerned about CYP inhibition. Therefore, medicinal chemists often change the lead structure to decrease CYP inhibition. If left uncorrected, it can cause DDIs, enhanced drug concentration, and, thus, toxicity.
(§2) Using HLM as the enzyme source, the CYP inhibition potential was employed to assess the inhibitory effect of the TbB ligands on the CYP1A2, 2B6, 2C8, 2C9, 2C19, and 2D6 3A4 isoforms. Phenacetin (CYP1A2, […]), tolbutamide (CYP2C9, 20 mM), bupropion (CYP2B6, […]), mephenytoin (CYP2C19, […]), midazolam (CYP3A4, 5 mM), amodiaquine (CYP2C8, 0.02 mM), and dextromethorphan (CYP2D6, 5 mM) were used as probe substrates. The test substance included TbB ligand (final concentrations of […] for each) and HLMs (final concentration of 0.1 mg protein per mL), with or without 1.0 mM NADPH. The reaction was started by adding pre-incubated 25 μ L of NADPH into all wells and incubate at 37 °C for 10 min for 3A4 and 20 min for remaining all isoforms. The reaction was stopped by adding 100 μ L of stop solution to all wells. The samples were centrifuged at 4000 rpm for 10 min at 4 °C. Supernatant (100 μ L) was withdrawn, mixed with 200 μ L of water followed by LC-MS/MS analysis.

Another data set has as its target T2, CYP2C8 (Homo sapiens, UniProt P10632).
T2 construct: Using HLM as the enzyme source; from tissue; host or cells: human liver microsomes
T2 sequence (P10632 1-490): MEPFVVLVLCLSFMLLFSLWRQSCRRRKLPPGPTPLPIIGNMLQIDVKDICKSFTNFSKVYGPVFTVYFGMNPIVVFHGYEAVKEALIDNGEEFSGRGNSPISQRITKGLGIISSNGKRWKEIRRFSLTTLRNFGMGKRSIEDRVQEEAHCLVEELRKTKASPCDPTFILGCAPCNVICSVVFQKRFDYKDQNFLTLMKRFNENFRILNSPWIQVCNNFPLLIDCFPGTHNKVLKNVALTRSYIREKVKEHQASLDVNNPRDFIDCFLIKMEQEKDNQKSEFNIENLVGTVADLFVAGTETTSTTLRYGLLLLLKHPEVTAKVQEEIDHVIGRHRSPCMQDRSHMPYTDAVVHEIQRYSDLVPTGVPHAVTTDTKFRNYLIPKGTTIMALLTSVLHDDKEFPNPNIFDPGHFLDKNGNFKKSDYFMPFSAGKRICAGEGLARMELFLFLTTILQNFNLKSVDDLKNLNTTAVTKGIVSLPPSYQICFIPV
The data set is described as follows: CYP inhibition assay in HLM, single concentration. It is filed as biochemical. The note with it: human liver microsomes, probe Amodiaquine, n = 3, read-out: % Inhibition (CYP 2C8). As for the experimental part: as §1, §2
Background: Microsomes from liver hold many membrane-bound enzymes, among them those of drug oxidation.

Broadly, the inhibition is the change of the read-out against control, counted positive when it falls.

SMILES strings stand for the structures.

As for `COc1cc(-c2nnn(-c3cc(OC)c(O)c(OC)c3)n2)cc(OC)c1O` [223-2], the “estrogenicity by in vitro studies” value in the data set on estrogenicity is “potentially non-estrogenic”. In addition, the results for the inhibition at 20 min, 10 µM on CYP2B6 and at CYP2C8 were 47% and 39%, respectively.

As for `Cc1cc(-c2nnn(-c3cc(C)c(O)c(C)c3)n2)cc(C)c1O` [223-3], in the data set on estrogenicity, the “estrogenicity by in vitro studies” value was “potentially non-estrogenic”. Also, the inhibition at 20 min, 10 µM at CYP2B6 was determined as 80%; on CYP2C8 it was 88%.

In the case of `Oc1ccc(-c2nnn(-c3ccc(O)cc3)n2)cc1` [223-10], the inhibition at 20 min, 10 µM at CYP2B6 stood at 54%; at CYP2C8 it was 82%.

These data come from publication PMC9921896 (Molecules, 2023).
